Results as given in US20100216886A1, “POLYMORPHS OF N2-(1,1'-BIPHENYL-4-YLCARBONYL)-N1-[2-(4-FLUOROPHENYL)-1,1-DIMETHYLETHYL]-L-ALPHA-GLUTAMINE” (Wyeth, priority 2006, published 2010).
In brackets after ≈: the same amount, converted by molar mass.

Key:
[1] = Forced degradation study (solution stability); format: physicochemical; conditions: 387 μg/mL with 25% acetonitrile in acid, base, peroxide and water under heat and light stress
Procedure: A forced degradation study was performed to generate potential degradation products and assess stability liabilities.

physchem = experiment: physchem
Procedure: The pH solubility profile was generated first with Sample D containing polymorph Form A, and then with Sample F containing polymorph Form B, in HCl/NaOH solutions. After 24 hour equilibration, suspensions were centrifuged and the supernatants assayed by HPLC.
The solubility data was analyzed as a function of pH using the Henderson-Hasselbach equation:
Solubility=S0·[10^(PH-pKa)+1],
where S0 is the intrinsic solubility of the free acid.

[2] = Second CACO-2 study, propranolol as reference; format: in vitro ADME; conditions: human, Caco-2
Excerpt: (§1) The second CACO-2 study gave somewhat different results (Table 12). Because metoprolol interferes with the LC/MS assay, propranolol, which has a permeability that is […] metoprolol, was used as the FDA calibration compound. The apical pH was controlled at 6 and basolateral pH at pH 7. In addition, verapamil was used as a competitive inhibitor of the Pgp (P-glycoprotein) transporter. The ratios to propranolol were 1.00 and 0.77 with and without verapamil. […] The B→A/A→B ratios were low at 0.3 and 0.3, with and without verapamil, respectively, indicating again no efflux […].

CACO-2 [3] = experiment: Second CACO-2 study, propranolol as reference; format: in vitro ADME; conditions: for Ratio to Propranolol: A → B
Excerpt: as §1

[4] = In situ rat perfusion model, metoprolol as reference; format: in vivo; conditions: rat
Excerpt: The permeability was 18.2 nm/sec, which is higher than the 14.5 nm/sec value obtained for metoprolol (Table 13).

[5] = Solubility in water and toxicology vehicle (animal formulation); format: physicochemical
Procedure: (§2) Solubility is enhanced slightly in the 2% Tween/0.5% methylcellulose toxicology vehicle, ranging from […]. 2% Tween may also increase GI membrane permeability.

[6] = Oral bioavailability in rat; conditions: in vivo, read-out: Oral bioavailability (F %)
Procedure: as §2
(§3) A prolonged absorption phase was observed together with decreasing bioavailability with increasing dose in both animal species. […] However, the absorption at pharmacological doses seemed reasonably complete albeit with delayed Tmax at lower GI when the drug is more soluble.

[7] = Oral bioavailability in dog; conditions: in vivo, read-out: Oral bioavailability (F %)
Procedure: as §2, §3

[8] = Solubility in various solvents at 25° C. and 50° C.; format: physicochemical
[9] = Slurry in water at 50° C. (polymorphic transformation); format: physicochemical; conditions: slurry in water at 50° C. for 12-24 hr
Procedure: Powder XRD patterns comparing the starting material to polymorph pseudo Form A are shown in FIG. 34, and DSC thermograms of both batches at 50° C. are shown in FIG. 35.

[10] = First CACO-2 study, metoprolol as reference; conditions: human; for recovery: Caco-2, pH 7.4, % Recovery, pH 7.4
CACO-2 [11] = experiment: First CACO-2 study, metoprolol as reference; conditions: for Ratio to Metoprolol: pH 7.4
CACO-2 [12] = conditions: human, Caco-2, pH 7.4
in vitro = conditions: human, Caco-2, pH 7.4

With `CC(C)(Cc1ccc(F)cc1)NC(=O)[C@H](CCC(=O)O)NC(=O)c1ccc(-c2ccccc2)cc1` [Compound (I), N^2-(1,1′-biphenyl-4-ylcarbonyl)-N^1-[2-(4-fluorophenyl)-1,1-dimethylethyl]-L-α-glutamine] the Forced degradation result [1] was “subject to acid and peroxide degradation”, the pKa (physchem) was 5.3 and the solubility at 24 h (physchem; aqueous buffer, thermodynamic from solid, S0 (intrinsic solubility of the free acid)) was 4.5 µg/mL (≈ 0.00944 mM). For the same molecule, the Papp A→B ([2]; A → B, apical pH 6, basolateral pH 7, without verapamil) was 62.4 ×10⁻⁶ cm/s, the Papp B→A ([2]; B → A, apical pH 6, basolateral pH 7, without verapamil) was 18.5 ×10⁻⁶ cm/s and the efflux ratio ([2]; without verapamil, read-out: Ratio of B→A/A→B) was 0.3. The “Ratio to Propranolol” value (CACO-2 [3]; plus Verapamil) was 0.77, the “Ratio to Propranolol” value (CACO-2 [3]; without verapamil) was 1.00 and the “mean ratio to propranolol” value (CACO-2 [3]; average of values with and without verapamil) was 0.88. The “Ratio of B→A/A→B” value (CACO-2 [3]; plus Verapamil) was 0.3, the Permeability classification (CACO-2 [3]; versus propranolol) was “low permeability” and the “Ratio of B→A/A→B” value (CACO-2 [3]; without verapamil) was 0.3. The Papp at 20 μg/mL [4] was 1.82 ×10⁻⁶ cm/s, the Permeability classification [4] was “high permeability” and the “Peff × 10^−1 (μm/sec)” value ([4]; in vivo, 20 μg/mL) was 1.82 × 10^−1 μm/sec. For the same molecule, the “Ratio to Metoprolol” value ([4]; in vivo, 20 μg/mL) was 1.26, the solubility ([5]; 2% Tween/0.5% methylcellulose toxicology vehicle, aqueous with cosolvent or surfactant or cyclodextrin, read-out: Solubility in toxicology vehicle) was 220 to 470 µg/mL (≈ 0.462 to 0.986 mM) and the “resulting pH” value ([5]; water) was “around 5.5”. It also gave a solubility ([5]; water, pH 5.5, water, read-out: solubility in water) of less than 100 µg/mL, a bioavailability ([6]; 100 mg/kg) of roughly 100% and a bioavailability ([6]; Tox suspension, 25 mg/kg) of 29%. The bioavailability ([7]; Tox suspension, 25 mg/kg) was roughly 100%, the bioavailability ([7]; capsule containing neat drug) was 65% and the solubility ([8]; Water, 25° C.) was 1600 µg/mL (≈ 3.36 mM). The solubility ([8]; Water, 50° C.) was 1800 µg/mL (≈ 3.78 mM), the solubility ([8]; organic solvent or mixture, Acetonitrile, 25° C.) was 43000 µg/mL (≈ 90.2 mM) and the solubility ([8]; organic solvent or mixture, Acetonitrile, 50° C.) was greater than 133000 µg/mL. For the same molecule, the solubility ([8]; organic solvent or mixture, EtAc (ethyl acetate), 25° C.) was greater than 109000 µg/mL, the solubility ([8]; organic solvent or mixture, Ethanol, 25° C.) was greater than 137000 µg/mL and the solubility ([8]; organic solvent or mixture, Heptane, 25° C.) was 700 µg/mL (≈ 1.47 mM). It also gave a solubility ([8]; organic solvent or mixture, Isopropyl acetate (IPAc), 25° C.) of 76100 µg/mL (≈ 160 mM), a solubility ([8]; organic solvent or mixture, Isopropyl acetate (IPAc), 50° C.) greater than 123000 µg/mL and a solubility ([8]; organic solvent or mixture, Isopropyl alcohol (IPA), 25° C.) greater than 122000 µg/mL. For the same molecule, the solubility ([8]; organic solvent or mixture, Toluene, 25° C.) was 4300 µg/mL (≈ 9.02 mM), the solubility ([8]; organic solvent or mixture, Toluene, 50° C.) was 15600 µg/mL (≈ 32.7 mM) and the “Change of powder XRD pattern or melting point / polymorphic transformation” value [9] was “not observed”. It also gave a Papp A→B ([10]; Caco-2, pH 7.4) of 14.9 ×10⁻⁶ cm/s, a Papp B→A ([10]; Caco-2, pH 7.4) of 37.4 ×10⁻⁶ cm/s and an efflux ratio ([10]; Caco-2, pH 7.4) of 2.36. For the same molecule, the recovery ([10]; A → B) was 100%, the recovery ([10]; B → A) was 156% and the “Ratio to Metoprolol” value (CACO-2 [11]; A → B) was 0.25. For the same molecule, the “Ratio to Metoprolol” value (CACO-2 [11]; B → A) was 0.59 and the Permeability classification (CACO-2 [11]; pH 7.4, versus metoprolol) was “low permeability”.
For `C[C@H]1O[C@@H](O[C@H]2[C@@H](O)C[C@H](O[C@H]3[C@@H](O)C[C@H](O[C@H]4CC[C@@]5(C)[C@H](CC[C@@H]6[C@@H]5C[C@@H](O)[C@]5(C)[C@@H](C7=CC(=O)OC7)CC[C@]65O)C4)O[C@@H]3C)O[C@@H]2C)C[C@H](O)[C@@H]1O` [DigoxinS], the “% Recovery” value (CACO-2 [12]) was 117%, the Papp A→B (in vitro) was 2.06 ×10⁻⁶ cm/s and the Papp B→A (in vitro) was 29.4 ×10⁻⁶ cm/s.
